# In patent US20060127505A1, “Anti-inflammatory formulations” (priority 2002, published 2006):
# Entries after “also recorded” stand apart in the source; their conditions may differ. Marks after values point to notes of the source that are not given here.
# Test system: ovalbumin(OA)-induced asthma in guinea pigs
# Assay: Ovalbumin-induced asthma in guinea pigs: inflammatory cells in BAL fluid
# Type: in vivo, guinea pig
# Details: for Eosinophils / Macrophages / Neutrophils: BAL fluid 24 hours after OV challenge
# Experimental: The effect combinations of vitamin C, astaxanthin, and ginkolide on asthma-associated disease parameters ovalbumin(OA)-induced asthma in guinea pigs was evaluated. Twenty-four hours following OA challenge, animals are sacrificed and numbers of inflammatory cells (eosinophils, neutrophils, macrophages) are measured in bronchoalveolar lavage (BAL) fluid; and cAMP and cGMP concentrations in the lung tissue. The experiments were carried out as follows. Male Hartley guinea pigs (250-350 g) were sensitized by intramuscular injections of 0.35 ml of a 5% (W/V) ovalbumin (OA)/saline solution into each thigh on days 1 and 4. Guinea pigs were ready for asthmatic challenge after 25 days of ovalbumin injection. Asthmatic challenge was carried out with ovalbumin aerosol, and bronchoalveolar lavage (BAL) was done 24 hours later. The numbers of eosinophils, neutrophils, and macrophages in the BAL fluid were counted. Twenty-four hours after the aerosol OA challenge, guinea pigs were killed by cervical dislocation and exsanguinated by severing the axillary arteries. Lungs were lavaged with 50 ml of DulBecco's phosphate-buffered saline (aliquots of 10 ml), which were aspirated after gentle chest massage. BAL fluid was centrifuged at 2200 rpm (1100×g) for 10 min, supernatant was aspirated, and pellets were resuspended in 5 ml 0.25% NaCl to lyse residual erythrocytes. This dispersion was centrifuged at 2200 rpm (1100×g) for 10 min, supernatant was aspirated, and pellets were resuspended 5 ml 0.9% NaCl. Total cell counts were done by hemocytometry using trypan blue stain. Slides were prepared on a Shandon Cytospin 2 (Pittsburgh, Pa.) at 300 rpm for 5 min, fixed and stained. Differential cell counts were done using standard morphologic criteria to classify cells as eosinophils, neutrophils, or macrophages, and the results were expressed in cell numbers. The dose-responsive effect of AX, EGb761, and vitamin C administered independently for suppression of asthma-associated parameters in allergen-induced, asthmatic guinea pigs was determined. Ibuprophen (IB) was used as the positive control. Concentration of inflammatory cells in bronchoalveolar lavage (BAL) fluid and levels of cAMP and cGMP in lung tissue were measured in guinea pigs 24 hours following challenge with OV. Data is reported as mean±SD of measurements taken in 6 animals per dosage cohort. *p<0.05 compared to corresponding values of OV antigen-challenged, drug-free control group. The dose-responsive effect of AX, EGb761, and vitamin C administered in combination for suppression of asthma-associated parameters in allergen-induced, asthmatic guinea pigs was determined. The combination of these three components was given each day for each guinea pig as a “cocktail”. Concentration of inflammatory cells in bronchoalveolar lavage (BAL) fluid and levels of cAMP and cGMP in lung tissue were measured in guinea pigs 24 hours following challenge with OV. Data is reported as mean±SD of measurements taken in 6 animals per dosage cohort. *p<0.05 compared to corresponding values of OV antigen-challenged, drug-free control group.
structure (smiles),measurement,setting,value
"CC1=C(/C=C/C(C)=C/C=C/C(C)=C/C=C/C=C(C)/C=C/C=C(C)/C=C/C2=C(C)C(=O)[C@@H](O)CC2(C)C)C(C)(C)C[C@H](O)C1=O [astaxanthin, 3,3′-dihydroxy-4,4′-diketo-B-carotene]",Eosinophils,5 mg/kg,5.0 ± 0.7 cell × 10^6/animal
same,Macrophages,5 mg/kg,9.6 ± 1.0 cell × 10^6/animal
same,Neutrophils,5 mg/kg,5.4 ± 0.8 cell × 10^5/animal
same,Eosinophils,10 mg/kg,4.6 ± 0.6 cell × 10^6/animal
same,Macrophages,10 mg/kg,8.0 ± 0.8 cell × 10^6/animal
same,Neutrophils,10 mg/kg,5.1 ± 0.6 cell × 10^5/animal
same,Eosinophils,30 mg/kg,3.1 ± 0.5* cell × 10^6/animal
same,Macrophages,30 mg/kg,3.7 ± 0.7* cell × 10^6/animal
same,Neutrophils,30 mg/kg,3.3 ± 0.8* cell × 10^5/animal
same,Eosinophils,100 mg/kg,2.4 ± 0.6* cell × 10^6/animal
same,Macrophages,100 mg/kg,2.70 ± 0.7* cell × 10^6/animal
same,Neutrophils,100 mg/kg,2.4 ± 0.5* cell × 10^5/animal
same,Eosinophils,200 mg/kg,2.3 ± 0.5* cell × 10^6/animal
same,Macrophages,200 mg/kg,2.6 ± 0.5* cell × 10^6/animal
same,Neutrophils,200 mg/kg,2.0 ± 0.4* cell × 10^5/animal
same,protection against OV-induced asthma,"components used separately: 10 mg/kg AX, 200 mg/kg vit C, 10 mg/kg GB, listed as AX",failed to protect; also recorded: failed to reduce the severity of asthma
